Measured values as given in patent US20220062233A1 (The Board of Trustees of the Leland Stanford Junior …, priority 2018, published 2022).
pIC50: −log10 of the molar value.

Legend:
[1] = molecular target: T1, interaction between Supt4h and NGN (subunit of Supt5h) (Homo sapiens, UniProt O00267+P63272); assay: Split Gaussia luciferase complementation assay (M2-8 Luciferase); type: cell-based; conditions: M2-8 cells
T1 construct: expressed in transfected cells
In short: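 HEK293-derived M2-8 cells inducibly express Supt4h-Gluc1 and NGN-Gluc2 fragments (stabilizing mutations) on RheoSwitch ligand addition; ligand plus compound added 24 h after plating and left 24 h. Cells frozen, lysed with 10 μg/ml native coelenterazine, 1 h room temperature dark; complemented luciferase luminescence read.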

M2-8 cells = assay: M2-8 Cell viability Assay; type: cell-based; conditions: at the concentration of 1000 nM
mutant HTT = assay: Mutant HTT assay in lymphoblastoid cells (LBC), Western blot; type: cell-based, human; conditions: read-out: LBC IC20 (nM) mHTT, 3 days compound treatment
In short: (§1)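 HD patient lymphoblastoid cells (GM14044, 250 CAG repeats in mutant allele) treated with compound for 3 days. Lysates normalised by BCA, run on SDS-PAGE and immunoblotted: mutant HTT with anti-polyQ MW1, wild-type HTT with anti-Huntingtin antibody, TBP and tubulin also probed. Band intensities quantified by infrared imaging.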

wild-type HTT = assay: Wild-type HTT assay in lymphoblastoid cells (LBC), Western blot; type: cell-based, human; conditions: 3 days compound treatment, read-out: LBC IC20 (nM) wtHTT
In short: as §1

[2] = system: Lymphoblastoid cells (GM14044); assay: LBC cell viability (Cell Titer-Glo); type: cell-based, human; conditions: at the concentration of IC20, 3-day compound treatment
Procedure: Cell viability was determined by Cell Titer-Glo reagent (Promega, PRG9243). After 3-day compound treatment, 15 μl of cell suspension was taken out from plate and incubated with 10 μl of CTG reagent. The values of reaction mixture were detected by Tecan.

mouse hepatocytes = assay: In vitro metabolic stability in mouse hepatocytes; type: in vitro ADME
Procedure: A. In Vitro Metabolic Stability in Hepatocyte
A compound's metabolic stability was assessed using mouse hepatocytes incubated with pre-defined concentration of test articles over several incubation period. The extent of metabolism was calculated from the disappearance of the test compound measured by liquid chromatography mass spectrometry (LC-MS), compared to that of 0-min control. After incubation, quench solutions including internal standards were added and analyzed by LC/MS. The elimination rate constant and intrinsic clearance (CLhepatocyte) values were calculated by linear regression of the compound elimination over the duration of incubation, normalized to the cell number in the given volume of incubation medium.

SMILES | pIC50 [1] | M2-8 Cell viability (M2-8 cells) | IC20 (mutant HTT) | IC20 (wild-type HTT) | LBC viability at IC20 [2] | Mouse HepStability (CLhepatocyte) (mouse hepatocytes) | elimination in in vitro hepatocyte stability assay (comparison) (mouse hepatocytes; compound #2 versus deuterated compound #42, FIG. 1A)
OCCOCc1ccc(CN[C@@H]2CCCc3c2[nH]c2ccc(Br)cc32)cc1 (single isomer, unassigned) [Compound 28] | ≥ 7.00 | + (cell viability is greater than 50% at the concentration of 1000 nM) | < 100 nM | > 1000 nM | * (cell viability is greater than 60% at the concentration of IC20) | A (CLhepatocyte <10 μl/min/10^6cells) | 
CS(=N)(=O)c1ccc(CN[C@@H]2CCCc3c2[nH]c2ccc(Br)cc32)cc1 (stereo partly drawn) [Compound 49, (4-((((R)-6-bromo-2,3,4,9-tetrahydro-1H-carbazol-1-yl)amino)methyl)phenyl)(imino)(methyl)-λ^6-sulfanone] | ≥ 7.00 | + (cell viability is greater than 50% at the concentration of 1000 nM) | 101 to 300 nM | > 500 nM | * (cell viability is greater than 60% at the concentration of IC20) | B (CLhepatocyte 10-30 μl/min/10^6cells) | 
[2H]C([2H])(O)c1ccc(CN[C@@H]2CCCc3c2[nH]c2ccc(Br)cc32)cc1 [Compound 42, (R)-(4-(((6-bromo-2,3,4,9-tetrahydro-1H-carbazol-1-yl)amino)methyl)phenyl)methan-d2-ol] | ≥ 7.00 | + (cell viability is greater than 50% at the concentration of 1000 nM) | < 100 nM | > 1000 nM | * (cell viability is greater than 60% at the concentration of IC20) | C (CLhepatocyte >30 μl/min/10^6cells) | 
OCc1ccc(CN[C@@H]2CCCc3c2[nH]c2ccc(Br)cc32)cc1 [Compound 2, (R)-(4-(((6-bromo-2,3,4,9-tetrahydro-1H-carbazol-1-yl)amino)methyl)phenyl)methanol] | ≥ 7.00 | + (cell viability is greater than 50% at the concentration of 1000 nM) | < 100 nM | > 250 nM | * (cell viability is greater than 60% at the concentration of IC20) | C (CLhepatocyte >30 μl/min/10^6cells) | more rapidly eliminated
OCc1ccc(CNC2CCCc3c2[nH]c2ccc(Br)cc32)cc1 (stereo not shown) [Compound 1] | ≥ 7.00 | + (cell viability is greater than 50% at the concentration of 1000 nM) | 101 to 300 nM | > 1000 nM | * (cell viability is greater than 60% at the concentration of IC20) | C (CLhepatocyte >30 μl/min/10^6cells) | 
CC(C)(O)c1ccc(CN[C@@H]2CCCc3c2[nH]c2ccc(Br)cc32)cc1 [Compound 31, (R)-2-(4-(((6-bromo-2,3,4,9-tetrahydro-1H-carbazol-1-yl)amino)methyl)phenyl)propan-2-ol] | ≥ 7.00 | + (cell viability is greater than 50% at the concentration of 1000 nM) | < 100 nM | > 250 nM | * (cell viability is greater than 60% at the concentration of IC20) | A (CLhepatocyte <10 μl/min/10^6cells) | 
